{"source": "paper PMC12689647", "about": "“Evaluation of bromadiolone combined with ciprofloxacin, vitamin D, aspirin, and cinnamon as an apoptosis-mediated rodenticide strategy” (Scientific Reports, 2025)", "key": {"p53": {"tested_on": "p53", "test": "Immunohistochemical detection of p53 in liver sections", "type": "in vivo, Rattus norvegicus", "details": "liver immunohistochemistry; oral, 21 days", "procedure": "(§1) Adult male rats (n = 7 × 9 = 63), weighing 150–200 g, were randomized and divided into seven groups. Group I served as the control. Group II received the vehicle control (0.1 ml/100 g ethanol). Group III was treated with bromadiolone (B) at ½ LD₅₀ (0.8 mg/kg)[28]. Group IV received bromadiolone (0.8 mg/kg) + ciprofloxacin (Anti.20 mg/kg)[29]. Group V received bromadiolone (0.8 mg/kg) + ciprofloxacin (20 mg/kg) + vitamin D (Vit. D 35 mg/kg)[30]. Group VI received bromadiolone (0.8 mg/kg) + ciprofloxacin (20 mg/kg) + vitamin D (35 mg/kg) + cinnamon (Cin. 2 g/kg)[31]. Group VII received bromadiolone (0.8 mg/kg) + ciprofloxacin (20 mg/kg) + vitamin D (35 mg/kg) + aspirin (A. 150 mg/kg)[32]. All doses were administered orally to wild rats over 21 days. The chemical we used for the euthanizing process: rats were narcotized by Ketamine + xylazine injection (IP) and then sacrificed by slaughtering.\nUsing xylene, paraffin-embedded tissues were deparaffinized and then rehydrated through a graded series of ethanol solutions. Antigen retrieval was performed by boiling the slides in 1 mM EDTA. The sections were then incubated in 3% H2O2 for ten minutes, washed with wash buffer (1X PBS) for five minutes, and blocked for one hour at room temperature. A 1:1000 dilution of the p53 primary antibody was then applied. […]"}, "liver DNA": {"tested_on": "liver DNA", "type": "in vivo, Rattus norvegicus", "details": "oral, 21 days", "procedure": "as §1\nFor the coated slides, 100 µL of cell suspension was mixed with 600 µL of low-melting agarose (0.8% in PBS). The coated slides were immersed for 15 min in a lysis solution containing 2.5% sodium dodecyl sulfate (SDS) and 0.045 M Tris-borate-EDTA (TBE) buffer at pH 8.4. The slides were then placed in an electrophoresis chamber filled with TBE buffer without SDS. Electrophoresis was conducted at 100 mA for two minutes at 2 V/cm. Staining was performed at 4 °C using 20 µg/mL ethidium bromide (EtBr). EtBr-stained DNA was visualized using a fluorescent microscope with a 40× objective and an excitation filter of 420–490 nm to detect DNA damage. Qualitative and quantitative assessments of tail length, tail moment, olive tail moment, and percentage of DNA in the head were determined using OpenComet software to evaluate five images."}, "liver of male wild rats [1]": {"tested_on": "liver of male wild rats", "test": "Semi-quantitative scoring of histopathological lesions in the liver (H&E)", "type": "in vivo, Rattus norvegicus", "parameters": "key to Fatty deposition / Hemorrhage / Thickening of blood vessels / Loss of liver architecture: (-) Absent lesion; (+) Slight (< 25%); (++) Moderate (from 25–50%); (+++) Severe (> 50%)", "details": "liver H&E lesion score; oral, 21 days", "procedure": "as §1\n. Hematoxylin, eosin stains was applied to 5 μm-thick paraffin Sect[38]. Four categories were established based on the histological evaluation of nine liver tissue lesions: (−) no lesion, (+) mild (less than 25%), (++) moderate (between 25% and 50%), and (+++) severe (more than 50%)[39]. We examined about 5 photos for each rat in each groups; 5 × 63 = 315 photos for assessments. Examination and photography were conducted using a digital camera (ToupTek ToupView, copyright 2019, version x86, compatible with Windows XP/Vista/7/8/10, China) and a light microscope (Olympus CX31, Japan)."}, "male wild rats": {"tested_on": "male wild rats", "test": "Serum measurements (AST, ALT, Ca2+, RBCs, Hgb, PT)", "type": "in vivo, Rattus norvegicus", "details": "oral, 21 days", "procedure": "as §1\n(§2) Determination of ionized calcium, RBC count, Hb, and prothrombin time (PT) was conducted at a private biochemical laboratory in Assiut, Egypt, using a Genuri KT-6400 automatic hematology analyzer (China). ALT and AST activities in blood plasma were measured using specific kits (Boehringer Mannheim, Mannheim, Germany) according to the manufacturer’s instructions. […]. The concentration of reduced glutathione (GSH) was estimated based on[37] and measured using spectrophotometry."}, "liver of male wild rats [2]": {"tested_on": "liver of male wild rats", "test": "Hepatic lipid peroxidation (LPO) and reduced glutathione (GSH)", "type": "in vivo, Rattus norvegicus", "details": "oral, 21 days", "procedure": "as §1, §2"}, "p21": {"tested_on": "p21", "test": "Western blot of liver tissue, p21", "type": "in vivo, Rattus norvegicus", "details": "Western blot normalized to β-actin, oral, 21 days", "procedure": "as §1\nFor the immunodetection and quantification of proteins such as p21 and cleaved caspase-3, markers of apoptotic cell death under various treatments, liver tissue was homogenized using RIPA lysis buffer. The samples were chopped and briefly sonicated on ice, and protein concentration was measured. Proteins (20 µg) were separated using SDS-PAGE and transferred to a nitrocellulose membrane. […] The optical densities of the bands were quantified and normalized to β-actin (1:5000) using ImageJ software."}, "[3]": {"tested_on": "male wild rats of Rattus norvegicus", "type": "in vivo", "details": "oral, 8 treated, one week"}, "[4]": {"tested_on": "male wild rats of Rattus norvegicus", "type": "in vivo", "details": "oral"}}, "note": "Where two headings read alike, the source gives them in different places.", "data": [{"smiles": "O=c1oc2ccccc2c(O)c1C(CC(O)c1ccc(-c2ccc(Br)cc2)cc1)c1ccccc1", "note": "(centres unmarked) [Bromadiolone]", "values": [{"measurement": "increase in p53 levels compared to the control", "setting": "p53", "result": 60.74, "unit": "%"}, {"measurement": "p53 immunoreactivity in liver sections", "setting": "p53", "result": "moderate brown immunoreactivity"}, {"measurement": "degree of liver DNA damage by comet assay", "setting": "liver DNA; liver comet assay photomicrographs", "result": "moderate amount of damaged DNA"}, {"measurement": "increase in olive tail moment (OTM) compared to the control", "setting": "liver DNA; liver comet assay", "result": 710.02, "unit": "%"}, {"measurement": "increase in tail DNA% (T.DNA%) compared to the control", "setting": "liver DNA; liver comet assay", "result": 222.35, "unit": "%"}, {"measurement": "increase in tail length (TL) compared to the control", "setting": "liver DNA; liver comet assay", "result": 155.04, "unit": "%"}, {"measurement": "increase in tail moment (TM) compared to the control", "setting": "liver DNA; liver comet assay", "result": 506.09, "unit": "%"}, {"measurement": "Cellular infiltration", "setting": "liver of male wild rats [1]", "result": "++ ((++) Moderate (from 25–50%))"}, {"measurement": "Congested blood vessels", "setting": "liver of male wild rats [1]", "result": "++ ((++) Moderate (from 25–50%))"}, {"measurement": "Dilated blood sinusoids", "setting": "liver of male wild rats [1]", "result": "+ ((+) Slight (< 25%))"}, {"measurement": "Fatty deposition", "setting": "liver of male wild rats [1]", "result": "-"}, {"measurement": "Features of necrosis: Karyolysis", "setting": "liver of male wild rats [1]", "result": "+ ((+) Slight (< 25%))"}, {"measurement": "Features of necrosis: Karyorrhexis", "setting": "liver of male wild rats [1]", "result": "+ ((+) Slight (< 25%))"}, {"measurement": "Features of necrosis: Pyknosis", "setting": "liver of male wild rats [1]", "result": "++ ((++) Moderate (from 25–50%))"}, {"measurement": "Hemorrhage", "setting": "liver of male wild rats [1]", "result": "-"}, {"measurement": "Loss of liver architecture", "setting": "liver of male wild rats [1]", "result": "-"}, {"measurement": "Necrotic areas", "setting": "liver of male wild rats [1]", "result": "+ ((+) Slight (< 25%))"}, {"measurement": "Thickening of blood vessels", "setting": "liver of male wild rats [1]", "result": "-"}, {"measurement": "Vacuolated cytoplasm", "setting": "liver of male wild rats [1]", "result": "++ ((++) Moderate (from 25–50%))"}, {"measurement": "Ca2+ serum, Mean ± SE", "setting": "male wild rats; control 4.640 ± 0.2943", "result": "13.15 ± 0.9675", "unit": "mg/dL"}, {"measurement": "RBCs serum, Mean ± SE", "setting": "male wild rats; control 11.08 ± 0.1956", "result": "8.240 ± 0.5015", "unit": "M/µl"}, {"measurement": "Hgb serum, Mean ± SE", "setting": "male wild rats; control 11.92 ± 0.3813", "result": "11.4 ± 0.2358", "unit": "g/dL"}, {"measurement": "PT (prothrombin time) serum, Mean ± SE", "setting": "male wild rats; control 21.25 ± 2.212", "result": "37.43 ± 1.329", "unit": "s"}, {"measurement": "AST serum, Mean ± SE", "setting": "male wild rats; control 92.37 ± 5.279", "result": "130.8 ± 8.149", "unit": "U/L"}, {"measurement": "ALT serum, Mean ± SE", "setting": "male wild rats; control 184.8 ± 4.632", "result": "225.5 ± 1.679", "unit": "U/L"}, {"measurement": "LPO, Mean ± SE", "setting": "liver of male wild rats [2]; control 1.458 ± 0.1402", "result": "1.660 ± 0.1817", "unit": "nmol/ mg protein"}, {"measurement": "GSH, Mean ± SE", "setting": "liver of male wild rats [2]; control 10.42 ± 0.4500", "result": "6.953 ± 0.1538", "unit": "ng/mg protein"}, {"measurement": "increase in p21 level compared to the control", "setting": "p21", "result": 96.65, "unit": "%"}, {"measurement": "Dead", "setting": "[3]; dose 0.3 mg/kg b.w.", "result": 1}, {"measurement": "Dead", "setting": "[3]; dose 0.6 mg/kg b.w.", "result": 2}, {"measurement": "Dead", "setting": "[3]; dose 2.2 mg/kg b.w.", "result": 5}, {"measurement": "Observed response %", "setting": "[4]; time 5 days", "result": 50, "unit": "%"}, {"measurement": "Observed response %", "setting": "[4]; time 6 days", "result": 62.5, "unit": "%"}, {"measurement": "Linear probit", "setting": "[4]; time 6 days, probit fit", "result": 5.4393}, {"measurement": "Linear response %", "setting": "[4]; time 6 days, probit fit", "result": 66.9788, "unit": "%"}]}]}
